From publication PMC6467689 (ACS infectious diseases, 2018) come the findings set out here.

The target in experiment [1] is T1, MukB (Escherichia coli, UniProt P22523). The experiment can be described thus: magnetic bead DNA bridging pull-down. It counts as biochemical. Particulars: 20 mM HEPES pH 7.7, 50 mM NaCl, 2 mM MgCl2, 5% glycerol, 1 mM DTT.
The target in experiment [2] is T1, MukB. As to the kind of experiment: SPR. It counts as binding. Particulars: 25 uM compound, 20 mM HEPES-KOH pH 7.0, 50 mM NaCl, 0.5% DMSO.

T1 sequence (P22523 whole entry): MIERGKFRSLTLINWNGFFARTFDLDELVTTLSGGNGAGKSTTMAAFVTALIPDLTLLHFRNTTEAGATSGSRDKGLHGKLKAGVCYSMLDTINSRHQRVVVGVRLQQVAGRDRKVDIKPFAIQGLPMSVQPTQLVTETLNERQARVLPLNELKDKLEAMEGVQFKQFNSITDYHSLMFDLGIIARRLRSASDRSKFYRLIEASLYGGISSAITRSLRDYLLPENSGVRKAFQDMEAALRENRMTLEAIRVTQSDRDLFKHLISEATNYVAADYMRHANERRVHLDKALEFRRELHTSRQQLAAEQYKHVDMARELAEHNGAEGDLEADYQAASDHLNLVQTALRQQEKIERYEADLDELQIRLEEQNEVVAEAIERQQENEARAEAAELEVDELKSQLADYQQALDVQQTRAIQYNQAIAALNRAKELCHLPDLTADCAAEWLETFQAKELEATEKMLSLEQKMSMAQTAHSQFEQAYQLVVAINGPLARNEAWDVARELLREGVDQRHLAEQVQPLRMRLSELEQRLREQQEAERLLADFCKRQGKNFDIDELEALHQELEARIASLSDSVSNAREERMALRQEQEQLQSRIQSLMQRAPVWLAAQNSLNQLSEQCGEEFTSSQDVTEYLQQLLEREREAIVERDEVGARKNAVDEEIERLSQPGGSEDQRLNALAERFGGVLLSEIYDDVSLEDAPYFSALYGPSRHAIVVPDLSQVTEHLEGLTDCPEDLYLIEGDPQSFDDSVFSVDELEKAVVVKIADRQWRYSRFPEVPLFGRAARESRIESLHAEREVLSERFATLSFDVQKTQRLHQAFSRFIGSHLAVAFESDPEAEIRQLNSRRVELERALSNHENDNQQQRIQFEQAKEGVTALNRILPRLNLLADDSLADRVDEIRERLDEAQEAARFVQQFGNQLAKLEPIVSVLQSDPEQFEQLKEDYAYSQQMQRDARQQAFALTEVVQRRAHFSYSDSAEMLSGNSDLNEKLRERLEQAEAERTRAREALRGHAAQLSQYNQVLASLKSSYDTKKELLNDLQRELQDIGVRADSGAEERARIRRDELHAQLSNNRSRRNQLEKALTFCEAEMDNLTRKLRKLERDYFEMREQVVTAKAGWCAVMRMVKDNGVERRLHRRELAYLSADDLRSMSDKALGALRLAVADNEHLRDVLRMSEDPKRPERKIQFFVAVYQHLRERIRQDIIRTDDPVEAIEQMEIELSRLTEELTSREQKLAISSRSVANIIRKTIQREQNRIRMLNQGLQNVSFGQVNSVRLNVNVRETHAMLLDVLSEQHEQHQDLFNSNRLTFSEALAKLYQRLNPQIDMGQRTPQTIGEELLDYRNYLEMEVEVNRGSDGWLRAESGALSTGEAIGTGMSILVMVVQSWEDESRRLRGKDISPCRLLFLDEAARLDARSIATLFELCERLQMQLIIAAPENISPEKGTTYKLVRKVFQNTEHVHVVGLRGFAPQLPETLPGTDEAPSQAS

With `COC1=C(N)C(=O)c2nc(-c3nc(C(=O)O)c(C)c(-c4ccc(OC)c(OC)c4O)c3N)ccc2C1=O` [NSC45383], the “inhibition of DNA bridging” value against MukB [1] is given as “Michellamine B, NSC71795 and, to a smaller degree, NSC45383, inhibit MukB mediated DNA bridging”. The “SPR (Biacore, MukB immobilised on CM5 chip)” value at MukB [2] is “A much weaker binding could be detected for NSC71795 (ellipticine) and NSC45383 (streptonigrin)”. `Cc1c2ccncc2c(C)c2c1[nH]c1ccccc12` [NSC71795]: at MukB [1], the “inhibition of DNA bridging” value is recorded as “Michellamine B, NSC71795 and, to a smaller degree, NSC45383, inhibit MukB mediated DNA bridging”. Further, the “SPR (Biacore, MukB immobilised on CM5 chip)” value at MukB [2] was “A much weaker binding could be detected for NSC71795 (ellipticine) and NSC45383 (streptonigrin)”.

Consider `COc1cc(C)cc2c(-c3c(O)cc(O)c4c3C[C@H](C)N[C@H]4C)cc(-c3cc(-c4c(O)cc(O)c5c4C[C@H](C)N[C@H]5C)c4cc(C)cc(OC)c4c3O)c(O)c12` [NSC661755, Michellamine B], for which the “inhibition of DNA bridging” value against MukB [1] is “Michellamine B, NSC71795 and, to a smaller degree, NSC45383, inhibit MukB mediated DNA bridging”.
